Article PMC11067372, “Evaluation of the antiplasmodial efficacy of synthetic 2,5-diphenyloxazole analogs of compounds naturally derived from Oxytropis lanata” (International Journal for Parasitology: Drugs and Drug …, 2024)
Where two headings read alike, the source gives them in different places.

Legend:
P. falciparum K1 = experiment: In vitro inhibition of P. falciparum K1 (SYBR Green I-based fluorescence assay); format: cell-based; conditions: Plasmodium falciparum, read-out: IC50 P. falciparum K1
Procedure: (§1) The cultures were maintained in an incubator under specific conditions: 37 °C under 5% CO2 and 5% O2.
(§2) The D-sorbitol method (CAS: 50-70-4, Wako, Osaka, Japan) was employed to synchronize parasites, resulting in the attainment of ≥90% ring-stage parasites. These synchronized parasites were then utilized for the experiments within a 2-h window. The assay was performed as follows. First, 50 μL of synchronized parasites with 0.5% parasitemia and 2% hematocrit were added to individual wells of a 96-well plate. Then, 50 μL of the test compounds was introduced to each well. […] Wells containing only test compounds and erythrocytes were included for background correction. […] After the designated incubation time, 100 μL of lysis buffer containing 0.02% (v/v) SYBR Green I was added to each well, the contents of the well were mixed by pipetting, and the plate was incubated in the dark at room temperature for 2 h. […] This assay was repeated four times at each concentration, and the resulting inhibitory values represent the average from three independent trials.
(§3) The IC50 or CC50 values were determined from three independent experiments by plotting the logarithmic concentration of the compound against the percent parasite inhibition or cell growth inhibition, respectively. Nonlinear regression analysis was conducted using GraphPad Prism 10 (GraphPad Software, Inc., La Jolla, CA, USA). Comparisons between groups were evaluated using either one-way or two-way ANOVA followed by Tukey's or Fisher's multiple comparisons tests. […] The meaning of each symbol is specified in the corresponding figure legend alongside the name of the employed test.

[1] = In vitro toxicity to human cells (cell viability assay); format: cell-based; conditions: human foreskin fibroblasts (HFFs), average ± SD, three independent experiments
Procedure: HFF cells are selected for cytotoxicity testing in this study, providing a physiologically relevant model for the evaluation of drug interactions with human cells. […] This designation makes them a suitable model for the investigation of cellular processes and their sensitivity to toxic substances, which is crucial for the early identification of potential adverse effects of drugs during the development process.
The IC50 or CC50 values were determined from three independent experiments by plotting the logarithmic concentration of the compound against the percent parasite inhibition or cell growth inhibition, respectively. Nonlinear regression analysis was conducted using GraphPad Prism 10 (GraphPad Software, Inc., La Jolla, CA, USA). Comparisons between groups were evaluated using either one-way or two-way ANOVA followed by Tukey's or Fisher's multiple comparisons tests. A p-value of <0.05 was considered to indicate statistical significance and is denoted by an asterisk or a symbol. The meaning of each symbol is specified in the corresponding figure legend alongside the name of the employed test.

P. falciparum 3D7 [2] = experiment: IC50 speed assay (24, 48, 72 h); format: cell-based, Plasmodium falciparum; conditions: for Speed of action (IC50 speed assay): IC50 at 24, 48, 72 h compared; for IC50: Plasmodium falciparum
Procedure: as §2

P. falciparum 3D7 [3] = experiment: Stage-specific assay on ring and schizont stages (SYBR Green I, 24 h); format: cell-based, Plasmodium falciparum; conditions: eight concentrations from 100-fold IC50
Procedure: (§4) To ensure uniformity, the parasites underwent a rigorous synchronization process using a two-step sorbitol treatment procedure. This synchronized parasite population was harnessed within a 2-h window for the ring stage, 8–10 h for the trophozoite stage, and 24–26 h for the schizont stage. Subsequent to sorbitol treatment, early trophozoites could be obtained within 6–8 h after the initial sorbitol treatment (within 20 h of development), while early schizonts could be obtained after an additional 16 h of incubation (within 36 h of development). Beyond 36 h, the schizonts mature, causing the rupture of red blood cells (RBCs) and the consequent release of merozoites, which promptly infect new RBCs.
Wells containing only the test compounds and erythrocytes were included to correct for background activity. The 96-well plates were incubated for 24 h at 37 °C in an atmosphere of 5% CO2 and 5% O2. The growth of P. falciparum 3D7 was detected using a SYBR Green I-based fluorescence assay.

P. falciparum 3D7 [4] = experiment: Stage-specific microscopy examination (ring, trophozoite, schizont); format: cell-based, Plasmodium falciparum; conditions: ring, trophozoite, schizont stages, artemisinin and chloroquine at all concentrations, Compounds 31 and 32 at 100 times IC50
Procedure: as §4
The negative control group consisted of cultures treated solely with complete medium and was designated the no treatment (NT) group. This analysis was repeated three times at each concentration. Following a 24-h incubation period, the culture in a 96-well plate was centrifuged at 1300 g for 5 min to settle down the iRBC; then, the supernatants were removed, and the iRBCs were washed with fresh media at the same volume as the initial culture. The centrifugation and washing were repeated 3 times, allowing the compound to be diluted by approximately 1000 times. Subsequently, thin blood smears from each treatment group were prepared using 1 μL of settled iRBCs. The proportion of parasites affected by the drug, including those with both abnormal and retained morphologies, was calculated by examining 100 parasites and counting the number displaying irregular development. Subsequently, the number of abnormal parasites was divided by the total count and then multiplied by 100 to obtain a percentage. The parameters used to define normal and abnormal morphologies can be found in Table S3 and Fig. S1.

P. falciparum 3D7 [5] = experiment: In vitro inhibition of P. falciparum 3D7 (SYBR Green I-based fluorescence assay); format: cell-based, Plasmodium falciparum; conditions: Plasmodium falciparum, 3D7, 72 h, read-out: IC50 P. falciparum 3D7
Procedure: as §1, §2, §3

P. yoelii 17XNL = format: in vivo; conditions: P. yoelii 17XNL-infected mice; 20 mg/kg/day
Procedure: Male C57BL/6 mice, aged eight weeks, were obtained from Japan CLEA (Tokyo, Japan) and housed with six per cage in each group. These mice were kept under conditions of 24 °C, 50% relative humidity, and a light-dark cycle of 8 a.m. to 8 p.m. Access to drinking water and food (CLEA Rodent Diet CE-2; Japan CLEA, Tokyo, Japan) was unrestricted. Prior to experimentation, P. yoelii 17XNL was recovered from cryopreserved erythrocyte stocks via passage in mice. […]. Parasitemia levels were evaluated […] by collecting 2 μL of blood from the mouse tail for thin blood smear preparation. Treatment was initiated upon reaching a parasitemia level of 1%. […]. Parasitemia in infected mice was observed daily by preparing Giemsa-stained thin blood smears (up to 30 dpi). Hematocrit levels were measured every other day using a Celltac-α MEK-6550 (Nihon Kohden, Tokyo, Japan), with 10 μL of blood collected from the mouse tail for each assessment. The animals were handled and treated in accordance with the Guide for the Care and Use of Laboratory Animals by the Ministry of Education, Culture, Sports, Science, and Technology, Japan. Ethical permission for the animal experiment protocols was secured under permit numbers 21–35 and 23–90 from the ethical committee of Obihiro University of Agriculture and Veterinary Medicine.
The median point within this range was selected to maintain a balance between efficacy and safety. Furthermore, a modified Peter's suppression test was utilized to assess the efficacy of antimalarial drugs ([Ager, 1984]; [Peters et al., 1975]). The treatment and observation period were initially set for 4 days. […] […]. […] These findings highlight the effect of the 20 mg/kg/day dosage of Compounds 31 and 32 in reducing parasitemia without causing side effects.

SMILES	IC50 (P. falciparum K1; multidrug-resistant strain K1, 72 h incubation, average ± SD, three independent experiments) [nM]	CC50 [1] [nM]	Speed of action (IC50 speed assay) (P. falciparum 3D7 [2]; P. falciparum 3D7)	IC50 (P. falciparum 3D7 [2]; P. falciparum 3D7, 24 h incubation, read-out: IC50 24 h) [nM]	IC50 (P. falciparum 3D7 [2]; P. falciparum 3D7, 48 h incubation, read-out: IC50 48 h) [nM]	Stage specificity (ring and schizont stages) (P. falciparum 3D7 [3])	Parasite morphology after 24 h treatment (P. falciparum 3D7 [4])	IC50 (P. falciparum 3D7 [5]) [nM]	IC50 (P. falciparum K1; K1, 72 h) [nM]	IC50 (P. falciparum 3D7 [2]; 3D7, 24 h, read-out: IC50 24 h) [nM]	IC50 (P. falciparum 3D7 [2]; 3D7, 48 h, read-out: IC50 48 h) [nM]	IC50 (P. falciparum 3D7 [2]; 3D7, 72 h, read-out: IC50 72 h) [nM]	Treatment duration required to decrease the parasitemia levels from the peak of infection (P. yoelii 17XNL) [days]
C[C@@H]1CC[C@H]2[C@@H](C)C(=O)O[C@@H]3O[C@@]4(C)CC[C@@H]1[C@]32OO4 [Artemisinin, artemisinin, reference compound]	19 ± 2	153000 ± 30800	fast-acting	37 ± 5	23 ± 2	potency against ring and schizont stages	death and shrinkage of the parasite at all stages						
CCN(CC)CCCC(C)Nc1ccnc2cc(Cl)ccc12 (stereo not shown) [Chloroquine (diphosphate), chloroquine diphosphate, reference compound]			fast-acting			potency against ring and schizont stages	death and shrinkage of the parasite at all stages	26 ± 3	784 ± 73	46 ± 3	22 ± 4	26 ± 4	7
